Test results reported in ChEMBL document CHEMBL1153384, “Synthesis, antimalarial activity, and preclinical pharmacology of a novel series of 4'-fluoro and 4'-chloro analogues of amodiaquine. Identification of a suitable "back-up" compound for N-tert-butyl isoquine” (J Med Chem, 2009).

Experiments:
Plasmodium falciparum = test: Antimalarial activity against chloroquine-resistant Plasmodium falciparum TM6; assay type: functional, organism-based
Liver = test: Biodistribution in cannulated Wistar rat liver assessed as [3H]labeled drug level at 54 umol/kg, iv after 5 hrs; assay type: ADME, organism-based; settings: in vivo
[1] = Drug metabolism in cannulated Wistar rat assessed as urinary excretion of [3H]labeled drug level at 54 umol/kg, iv after 5 hrs; assay type: ADME, organism-based, Urine; settings: in vivo
Rattus norvegicus = test: Metabolic stability in Wistar rat assessed as (2S,3S,4S,5R,6S)-6-{2-[5-(7-Chloro-quinolin-4-ylamino)-2-fluoro-benzylamino]-2-methyl-propionyloxy}-3,4,5-trihydroxy-tetrahydro-pyran-2-carboxylic acid level at 54 umol/kg, iv administered as [3H]labeled drug after 5 hrs; assay type: ADME, organism-based; settings: in vivo
[2] = Clearance in iv dosed mouse; assay type: ADME, organism-based; settings: in vivo
Cytochrome P450 3A4 = Cytochrome P450 3A4 (Homo sapiens, UniProt P08684); test: Inhibition of human CYP3A4 using PPR substrate; assay type: ADME
Cytochrome P450 3A4, sequence (P08684 whole entry): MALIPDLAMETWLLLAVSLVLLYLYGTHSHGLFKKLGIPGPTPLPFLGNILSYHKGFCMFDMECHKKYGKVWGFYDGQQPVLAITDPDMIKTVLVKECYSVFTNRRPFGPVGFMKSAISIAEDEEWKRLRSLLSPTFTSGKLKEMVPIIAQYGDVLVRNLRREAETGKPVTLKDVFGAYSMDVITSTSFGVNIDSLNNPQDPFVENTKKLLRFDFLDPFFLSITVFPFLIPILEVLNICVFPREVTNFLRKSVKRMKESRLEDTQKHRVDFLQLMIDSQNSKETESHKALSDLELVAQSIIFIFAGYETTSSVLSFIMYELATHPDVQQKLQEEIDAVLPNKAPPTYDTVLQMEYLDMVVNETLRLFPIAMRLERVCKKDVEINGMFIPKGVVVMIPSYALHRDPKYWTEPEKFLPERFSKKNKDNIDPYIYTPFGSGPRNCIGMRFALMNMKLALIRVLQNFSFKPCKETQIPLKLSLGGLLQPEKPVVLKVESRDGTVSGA

Cytochrome P450 2C8 = biological target: T1, Cytochrome P450 2C8 (Homo sapiens, UniProt P10632); test: Inhibition of human CYP2C8; assay type: ADME
T1 sequence (P10632 whole entry): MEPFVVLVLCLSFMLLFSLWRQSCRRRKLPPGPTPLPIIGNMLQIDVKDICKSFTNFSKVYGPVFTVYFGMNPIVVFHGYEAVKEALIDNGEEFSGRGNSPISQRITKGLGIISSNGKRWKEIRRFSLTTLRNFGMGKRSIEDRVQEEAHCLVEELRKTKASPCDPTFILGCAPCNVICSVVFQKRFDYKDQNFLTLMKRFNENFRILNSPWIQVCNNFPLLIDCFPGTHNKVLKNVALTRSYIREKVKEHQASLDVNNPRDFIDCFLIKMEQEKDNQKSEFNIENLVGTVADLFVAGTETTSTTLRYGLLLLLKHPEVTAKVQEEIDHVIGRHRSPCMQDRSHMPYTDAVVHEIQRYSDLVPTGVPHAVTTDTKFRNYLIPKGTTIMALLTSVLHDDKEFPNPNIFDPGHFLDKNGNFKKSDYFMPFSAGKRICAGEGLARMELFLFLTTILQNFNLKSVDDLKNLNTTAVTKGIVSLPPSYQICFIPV

Mus musculus = test: Toxicity in po dosed mouse assessed as maximal nonlethal dose administered as single dose; assay type: organism-based; settings: in vivo
Plasmodium yoelii = test: Antimalarial activity as reduced parasitaemia against Plasmodium yoelii 17X infected CD1 mice (Mus musculus) perorally dosed daily for 4 days; assay type: functional; settings: po, 96 h

**Q.** What does the source list for `CC(C)(C)NCc1cc(Nc2ccnc3cc(Cl)ccc23)ccc1F`?
**A.** IC50 (Plasmodium falciparum): 0.0219 µM; Drug uptake (Liver): 17.49 %ID; Activity [1]: 8.06%; Activity (Rattus norvegicus): 9.95%; clearance [2]: 40.4 mL/min/kg; IC50 (Cytochrome P450 3A4): Active; IC50 (Cytochrome P450 2C8): 9.8 µM; Activity (Mus musculus): 610 mg/kg; ED50 (Plasmodium yoelii): 7.7 mg/kg; ED90 (Plasmodium yoelii): 10.6 mg/kg
